The results in this text go back to US8299097B2, “Methods for treating inflammatory disorders” (The Brigham and Women's Hospital, Inc., priority 2008, dated 2012).

One assay deals with BALB/c mice. In words: Cys-LT amplification of pulmonary inflammation in OVA sensitized, low-dose OVA challenged BALB/c mice. It counts as in vivo, mouse. Conditions: intranasal cys-LT 12 h before each 0.1% OVA challenge. The method, then: FIG. 3. LTE4-mediated amplification of allergen-induced pulmonary inflammation. 3A. BAL fluid total cell counts (top) with percentages (middle) and total numbers (bottom) of eosinophils. Mice were sensitized twice with alum-precipitated ovalbumin (OVA). […] A separate sensitized group of mice were treated with 1% OVA as a positive control. 3B. Quantitative analysis if pulmonary inflammation, measured as the number of bronchovascular bundles with cellular infiltrates per 15 such bundles per mouse. 3C. Representative fields of H & E-stained lungs from mice from the indicated experimental groups. 3D. Morphometric analysis of goblet cell metaplasia, measured as the numbers of PAS-positive cells per mm of bronchial basal lamina. 3E. Representative PAS stains showing goblet cells (arrows). Results in 3A, 3B, and 3D are mean±SEM from 8-9 mice per group.
Thus, it was sought to determine whether either cys-LT amplified pulmonary inflammation induced by the inhalation of low-dose allergen in sensitized mice. Two weeks after sensitization with chicken egg ovalbumin (OVA) by intraperitoneal injection, BALB/c mice received inhalation challenges on three consecutive days with low-dose OVA (0.1%) for 30 minutes. Twelve hours before each challenge, the mice received intranasal LTD4, LTE4, or a buffer control. A cohort of mice treated with 1% OVA were maintained as a positive control. The mice were then euthanized, their BAL fluid collected, and their lungs examined histologically for evidence of inflammation and goblet cell metaplasia, a dominant pathologic signature of Th2-polarized mucosal inflammation. […] The extent of the cellularity and goblet cell responses of the LTE4-treated animals approached the levels of these parameters in the mice treated with 1% OVA.
Male BALB/c mice (6-8 weeks old) received intraperitoneal injections of reagent-grade chicken egg ovalbumin (OVA) (10 μg) precipitated with aluminum hydroxide ([…]) on days 0 and 7. […] Twelve hours after each dose, the mice were exposed to an aerosol of 0.1% OVA for 30 min delivered by an ultrasonic nebulizer. […] The mice were euthanized 24 hours after their third and final aerosol challenge. In some experiments, the mice received clopidogrel (500 μg/ml) in drinking water for 3 days before receiving the first intranasal dose of LTs. The treatment was continued throughout the procedure.
15 bronchovascular bundles of each mouse were evaluated.

The target in assay [1] is T1, human P2Y12 (Homo sapiens, UniProt Q9H244). In words: Binding of cys-LTs to membranes of CHO cells stably expressing the human P2Y12 receptor. On the set-up: polyhistidine (HIS) tag (C); expressed in transfected cells. The text has this:
A P2Y12 receptor cDNA was amplified by reverse transcriptase polymerase chain reaction (RT-PCR) from RNA extracted from primary hMCs and cloned into a mammalian expression vector. Expression was confirmed by detection of a histidine (HIS) tag by flow cytometry. Another cohort of CHO cells were stably transfected with a P2Y12 receptor construct in reverse orientation as a negative control. […] The cys-LT-induced ERK activation blocked by pre-treatment of the cells with pertussis toxin (PTX), was attenuated by treatment with the P2Y12 receptor-selective antagonist 2-methylthioadenosine monophosphate (2-MesAMP) (FIG. 1C), and was resistant to MK571, an inhibitor that blocks CysLT1R and some P2Y receptors (Mamedova, L., et al. 2005. Biochem. Pharmacol. 71:115-125). […] These responses were resistant to PTX and 2-MesAMP, and susceptible to MK571 in the case of the CysLT1R transfectants.
A human P2Y12 receptor cDNA was amplified by 30 cycles of PCR from reverse-transcribed total RNA extracted from primary cord blood hMCs. The primer sequences were 5′-[…] (SEQ ID NO: 1) and 3′-[…] (SEQ ID NO: 2). The fragment was cloned into a TA vector (INVITROGEN™). After verifying the nucleotide sequence, the fragment was subcloned into the multiple cloning site of the expression vector pEF1/His B, encoding a C-terminal polyhistidine (HIS) tag. A plasmid expressing the P2Y12 receptor construct in the forward orientation were transfected into CHO cells using Fugene HD reagent according to manufacturer's protocol. A construct in the reverse sequence was transfected in parallel as a negative control. […]
[^3H] […] Protein concentration was determined using Biorad Protein Assay Kit. […] The residual membrane-associated [^3H] on the filter was determined in 2 ml scintillation fluid by beta counter (Perkin Elmer). For [^3H]ADP, specific binding was determined by subtracting the amount of [^3H] bound in the presence of 100 μM 2-MesADP from total binding.

For assay [2], the target named is T1, human P2Y12. In words: Binding of [P^33]2-MesADP and [H^3]LTE4 to membranes of COS-7 cells transfected with the human P2Y12 construct. Details: polyhistidine (HIS) tag (C); expressed in transfected cells; host or cells: COS-7 cells, transient. The following applies: COS-7 membranes, forward P2Y12 construct. The protocol:
FIG. 10. Competitive ligand binding assays. 10A. […] Specific binding (typically 50-75% of the total) was calculated by subtracting the amount of radiolabel that was insensitive to the selective P2Y12 receptor antagonist 2-MesAMP. Nonspecific binding was essentially identical in the membranes with and without P2Y12 receptor knockdown. The dose response for the LAD2 membranes are from a single experiment repeated four times with similar results. The binding on the LAD2 cells with P2Y12 knocked down was repeated twice. 10B. Specific binding of radiolabeled ADP (2000 nM) to membranes of LAD2 cells. […] Results are mean±SD from three separate experiments. 10C. Conversion of radiolabeled LTD4 to LTE4 as confirmed by HPLC (left). […] Results in a second experiment were similar 10D. Competitive binding of radiolabeled 2-MesADP to COS-7 cells transfected with the human P2Y12 construct.
Competitive radioligand binding assays were performed using [H^3]ADP (the known natural ligand of P2Y12 receptors) and unlabeled LTs as competitors. […] The membranes from the transfectants expressing the forward construct bound [P^33]2-MesADP, a selective P2Y12 receptor agonist.

T1 sequence (Q9H244 whole entry): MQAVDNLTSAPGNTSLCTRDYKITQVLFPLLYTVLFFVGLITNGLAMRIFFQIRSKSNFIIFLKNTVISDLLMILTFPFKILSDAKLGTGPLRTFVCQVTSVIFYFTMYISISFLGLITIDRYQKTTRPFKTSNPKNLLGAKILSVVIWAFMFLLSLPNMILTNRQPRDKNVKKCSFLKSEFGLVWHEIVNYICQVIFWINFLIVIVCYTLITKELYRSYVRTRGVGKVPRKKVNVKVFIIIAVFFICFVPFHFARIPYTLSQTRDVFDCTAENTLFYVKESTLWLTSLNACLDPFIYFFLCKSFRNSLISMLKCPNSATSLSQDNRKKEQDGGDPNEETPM

In the case of `CCCCC/C=C\C\C=C/C=C/C=C/[C@@H](SC[C@H](N)C(=O)NCC(=O)O)[C@@H](O)CCCC(=O)O` [LTD4], in the assay with BALB/c mice, the BAL fluid eosinophilia result is listed as “did not increase”, the bronchovascular inflammation entry is reported as “tended to slightly potentiate” and the goblet cell metaplasia entry is “tended to slightly potentiate”. For the same compound, the “binding to membranes of the transfectants” value at human P2Y12 [1] was “also bound”. At human P2Y12 [2], the “competition for [P^33]2-MesADP binding” value is on record as “not competed”.
For the compound `CCCCC/C=C\C\C=C/C=C/C=C/[C@@H](SC[C@H](N)C(=O)O)[C@@H](O)CCCC(=O)O` [LTE4], in the assay with BALB/c mice, the BAL fluid eosinophilia result is “significantly enhanced”, the bronchovascular inflammation result was “significantly enhanced” and the goblet cell metaplasia result is recorded as “significantly enhanced”. The Kd at human P2Y12 [1] (membranes of P2Y12 CHO transfectants, read-out: affinity constant) is 10 nM. On human P2Y12 [2], the “binding of [H^3]LTE4 to membranes” value is reported as “failed to bind” and the “competition for [P^33]2-MesADP binding” value is listed as “not competed”.
